Patent US20230235301A1, “Compounds and Methods for Treating, Ameliorating, or Preventing Herpes Ocular Keratitis” (THE TRUSTEES OF THE UNIVERSITY OF PENNSYLVANIA, priority 2020, published 2023)
Positions of bridges follow the written chain, without caps; N, C: chain ends. Non-standard residues stand in square brackets, D forms with d. Residues, ends and D or L forms follow the SMILES beside them. No end group written: not given here. R8 = C=CCCCCCC[C@@](C)(N)C(=O)O; S5 = C=CCCC[C@](C)(N)C(=O)O

What was measured:
HSV-1 [1] = assay: microbe, parasite or virus in culture; format: cell-based; details: 1 h
Method: (§1) Cells with ~90% confluence in 48-well plates were infected by absorbing virus (~100 PFU/well) for 1 h in 100 µL growth medium followed by adding 200 µL culture medium containing DMSO vehicle or serially diluted peptides or Acyclovir (Tocris Bioscience-Fisher Scientific) to each well of the plate. DMSO was maintained at 1% throughout the treatment. Cells were subsequently fixed and stained with 300 µL PBS containing 4% formaldehyde and 0.2% crystal violet overnight at room temperature. HSV-1 plaques were quantified at ~55 h post-infection of Vero cells. VV (WR strain) infection of BSC-1 cells was analyzed for plaque formation after 24 h. The plaque reduction assays were performed in duplicate and independently repeated twice. Cells were stained, and plaques counted under a dissecting microscope. Data were plotted on the GraphPad Prism.
Standard viral plaque reduction assays were conducted in Vero cells to determine if any of the five stapled peptides (S-pep1/3/4/7/8) that were able to block processive DNA synthesis, could also block HSV-1 infection. To minimize possible interference of HSV-1 cell attachment and entry by the peptides, cells were first infected by absorbing the virus for 1 h, followed by treatment with peptides at serial dilutions. […] The EC50 values of both S-pep3 and S-pep8 were approximately 100 µM (FIG. 15C and FIG. 15F). Additionally, S-pep4 was toxic at 12.5 µM, which precluded further optimization.

Vero cells = assay: Cytotoxicity observed in the plaque reduction assays; format: cell-based, African green monkey
Method: as §1
Cellular cytotoxicity of the N-terminal substituted stapled peptides was also assessed. S-pep7A caused observable cell death at 50 µM in the plaque assays.

[2] = Cytotoxicity and cell viability assays (ATP content, LDH leakage) in Vero cells; format: cell-based; details: African green monkey, 24 h treatment
Method: (§2) Cells were grown in 96-well plates to ~80% confluence and treated with peptides at different concentrations in 150 µL growth medium containing 1% DMSO. At 24 h post-treatment, 100 µL of the culture medium was used for the lactate dehydrogenase (LDH) cytotoxicity assay. In addition, the cells from the same treatment were assessed with an ATP-based cell viability assay. Briefly, after the growth medium was completely removed, the cells were lysed in 100 µL of 1% Triton X-100 in PBS per well at room temperature. After 10 min, 5 µL of lysate was used for ATP-based luciferase/luminescence assay according to the manufacturer’s protocol (Invitrogen, USA). The assays were performed in triplicate and independently repeated twice.

[3] = system: vaccinia virus (VV, WR strain); format: cell-based; details: BSC-1 cells, plaques after 24 h
HSV-1 [4] = assay: HSV-1 infection of human 3D organotypic corneal culture; format: cell-based; details: 25 µM, 5 days treatment, 3D organotypic corneal tissue
Description: Cultures were assembled with human dermal fibroblasts isolated from newborn foreskins and primary human corneal epithelial cells isolated from unused sclerolimbal rings from corneal transplants. After three weeks, organotypic cultures with differentiated corneal epithelial cells overlaying a layer of fibroblasts are established, reproducing the organization of the anterior corneal surface (FIG. 23A).
The assembled 3D organotypic corneal culture was infected with HSV-1 by gently abrading the surface and topically applying 10^6 PFU/mL of HSV-1. After 1 h, unabsorbed virus was removed, and the culture was incubated in medium containing 25 µM S-pep7B in 0.5% DMSO. Treatment occurred over a period of 5 days, in which the medium containing S-pep7B was refreshed every other day. The corneal tissues were examined microscopically each day. At the end of the treatment period, the 3D tissue was cut in half, using the first half to measure the virus titer by plaque assay and the other half for histological examination.

[5] = system: HSV-1 viral DNA (UL42 gene); assay: HSV-1 DNA replication in infected Vero cells (UL42 gene PCR); format: cell-based
Method: Confluent Vero cells in 48-well plates were infected by absorbing 10^5 PFU of HSV-1 (MOI ~1) for 1 h in 100 µL of DMEM medium containing 5% FBS. Unabsorbed virus was removed by washing the wells 4 times with PBS. Cells were then treated with S-pep7B (SEQ ID NO:32) peptide in triplicate at different dilutions in 300 µL growth medium containing 1% DMSO. At 4 h post-treatment, cells of each triplicate treatment were combined and lysed with 20 mM Tris buffer (pH 7.5) containing 20 mM EDTA, 0.5% SDS, and 0.5 mg/mL proteinase K. Total DNA was then prepared from the lysed cells with phenol/chloroform extraction and ethanol precipitation, and used for UL42 gene amplification by PCR using the primers described above for plasmid construction. After agarose gel electrophoresis, UL42 DNA levels were quantitated using an image capture and analysis system (G:Box Chemi HR, Syngene) and normalized to that of the cellular house-keeping gene GAPDH (glyceraldehyde-3-phosphate dehydrogenase), which was amplified using primers (forward: 5′-[…]-3′ (SEQ ID NO:55), and reverse: 5′-[…]-3′) (SEQ ID NO:56). The assays were independently repeated twice.
Experiments were subsequently performed to determine if the HSV-1 antiviral activity of S-pep7B was specifically due to the inhibition of viral DNA replication. […]

[6] = ATP-based cytotoxicity in human primary corneal epithelial cells; format: cell-based; details: read-out: CC50 by ATP measurement
Method: as §2

[7] = biological target: T1, HSV-1 Processivity Factor (UL42) (HSV-1 (strain KOS), UniProt P10226 1-488); assay: cell-based or functional assay
T1 sequence: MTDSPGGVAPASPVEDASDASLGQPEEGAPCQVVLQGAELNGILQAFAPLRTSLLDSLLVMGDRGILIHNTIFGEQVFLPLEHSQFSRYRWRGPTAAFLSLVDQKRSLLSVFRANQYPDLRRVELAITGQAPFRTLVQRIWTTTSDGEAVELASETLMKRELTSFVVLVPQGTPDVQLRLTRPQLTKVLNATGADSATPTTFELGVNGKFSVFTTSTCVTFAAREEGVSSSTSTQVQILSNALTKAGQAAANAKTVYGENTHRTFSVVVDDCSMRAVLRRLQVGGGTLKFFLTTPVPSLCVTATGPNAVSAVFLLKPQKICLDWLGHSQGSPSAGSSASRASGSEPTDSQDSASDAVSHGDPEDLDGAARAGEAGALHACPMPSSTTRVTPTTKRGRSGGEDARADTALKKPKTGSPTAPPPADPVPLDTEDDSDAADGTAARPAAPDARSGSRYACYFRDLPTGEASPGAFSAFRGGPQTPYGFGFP

## CC(=O)N[C@H](C(=O)N[C@H](C(=O)N[C@@H](CCCNC(=N)N)C(=O)N[C@@H](CCCNC(=N)N)C(=O)N[C@@]1(C)CCCC=CCCC[C@@](C)(C(=O)N[C@@H](Cc2ccccc2)C(=O)N[C@@H](CC(=O)O)C(=O)N[C@H](C(=O)N[C@@H](CC(C)C)C(=O)N[C@@H](C)C(=O)O)[C@@H](C)O)NC(=O)[C@H](CCCNC(=N)N)NC(=O)[C@H](Cc2c[nH]cn2)NC(=O)[C@H](CC(C)C)NC1=O)[C@@H](C)O)C(C)C [S-pep7A, Ac-VTRRXLHRXFDTLA] (Ac-VTRR[S5]LHR[S5]FDTLA-OH; staple 5-9; C-terminus assumed)
HSV-1 [1]
  EC50: 9.6 µM
Vero cells
  concentration at which toxicity / cell death was observed in the plaque assays: 50 µM

## CC(=O)N[C@@H](CCCNC(=N)N)C(=O)N[C@@H](CCCNC(=N)N)C(=O)N[C@@]1(C)CCCC=CCCCCCC[C@](C)(C(=O)N[C@@H](CC(C)C)C(=O)N[C@@H](C)C(=O)O)NC(=O)[C@H](CC(=O)O)NC(=O)[C@H](Cc2ccccc2)NC(=O)[C@H](C)NC(=O)[C@H](CCCNC(=N)N)NC(=O)[C@H](Cc2c[nH]cn2)NC(=O)[C@H](CC(C)C)NC1=O [S-pep4, Ac-RRXLHRAFDZLA] (Ac-RR[S5]LHRAFD[R8]LA-OH; staple 3-10; C-terminus assumed)
Vero cells
  concentration at which toxicity / cell death was observed in the plaque assays: 12.5 µM

## CC(=O)N[C@@H](CCCNC(=N)N)C(=O)N[C@H](C(=O)N[C@@H](CCCNC(=N)N)C(=O)N[C@@H](CCCNC(=N)N)C(=O)N[C@@]1(C)CCCC=CCCC[C@@](C)(C(=O)N[C@@H](Cc2ccccc2)C(=O)N[C@@H](CC(=O)O)C(=O)N[C@H](C(=O)N[C@@H](CC(C)C)C(=O)N[C@@H](C)C(=O)O)[C@@H](C)O)NC(=O)[C@H](CCCNC(=N)N)NC(=O)[C@H](Cc2c[nH]cn2)NC(=O)[C@H](CC(C)C)NC1=O)[C@@H](C)O [S-pep7C, Ac-RTRRXLHRXFDTLA] (Ac-RTRR[S5]LHR[S5]FDTLA-OH; staple 5-9; C-terminus assumed)
Vero cells
  concentration at which toxicity / cell death was observed in the plaque assays: 5 µM

## CC(=O)N[C@H](C(=O)N[C@H](C(=O)N[C@H](C(=O)N[C@@H](CCCNC(=N)N)C(=O)N[C@@H](CCCNC(=N)N)C(=O)N[C@@]1(C)CCCC=CCCC[C@@](C)(C(=O)N[C@@H](Cc2ccccc2)C(=O)N[C@@H](CC(=O)O)C(=O)N[C@H](C(=O)N[C@@H](CC(C)C)C(=O)N[C@@H](C)C(=O)O)[C@@H](C)O)NC(=O)[C@H](CCCNC(=N)N)NC(=O)[C@H](Cc2c[nH]cn2)NC(=O)[C@H](CC(C)C)NC1=O)[C@@H](C)O)C(C)C)C(C)C [S-pep7B, Ac-VVTRRXLHRXFDTLA] (Ac-VVTRR[S5]LHR[S5]FDTLA-OH; staple 6-10; C-terminus assumed)
HSV-1 [1]
  EC50: 9.8 µM
[2]; read-out: CC50, LDH leakage
  CC50 at 24 h: 126 µM
[2]; read-out: CC50, intracellular ATP content
  CC50 at 24 h: 114 µM
Vero cells
  concentration at which toxicity / cell death was observed in the plaque assays: no visible cytotoxicity
[3]
  inhibition of VV infection of cells: did not inhibit
HSV-1 [4]
  HSV-1 structural gB protein (immunostaining): complete absence
  nuclear morphology (DAPI staining): unremarkable nuclear morphology
[5]; 50 µM, 4 h post-treatment
  viral DNA level relative to time point 0 h: completely suppressed
[5]; MOI ~1, 4 h post-treatment, increasing concentrations, normalized to GAPDH
  UL42 DNA levels in infected cells: greatly reduced
[6]
  CC50 at 24 h: 31.2 µM

## CC(=O)N[C@@H](CCCNC(=N)N)C(=O)N[C@@H](CCCNC(=N)N)C(=O)N[C@H](C(=O)N[C@@H](CCCNC(=N)N)C(=O)N[C@@H](CCCNC(=N)N)C(=O)N[C@@]1(C)CCCC=CCCC[C@@](C)(C(=O)N[C@@H](Cc2ccccc2)C(=O)N[C@@H](CC(=O)O)C(=O)N[C@H](C(=O)N[C@@H](CC(C)C)C(=O)N[C@@H](C)C(=O)O)[C@@H](C)O)NC(=O)[C@H](CCCNC(=N)N)NC(=O)[C@H](Cc2c[nH]cn2)NC(=O)[C@H](CC(C)C)NC1=O)[C@@H](C)O [S-pep7D, Ac-RRTRRXLHRXFDTLA] (Ac-RRTRR[S5]LHR[S5]FDTLA-OH; staple 6-10; C-terminus assumed)
Vero cells
  concentration at which toxicity / cell death was observed in the plaque assays: 5 µM

B1: Native peptide (N-pep) (peptide)
peptide: Ac-ETRRMLHRAFDTLA
[7]
  IC50 of in vitro processive DNA synthesis directed by recombinant UL30 and UL42: > 200 µM
